Results as given in US20250170154A1 (GreenStone Biosciences, Inc., priority 2023, published 2025).
Like-named read-outs stand apart in the source and are kept apart here.

Columns and labels:
[1] = tested on: Dp16 mice; test: Dp16 mouse model of Down syndrome challenged with poly(I:C); assay type: in vivo
Description: Waugh et al., “Triplication of the interferon receptor locus contributes to hallmarks of Down syndrome in a mouse model”, Nat. Genet., 55, 1034-1047 (2023), note that the B6.129S7-Dp(16Lipi-Zbtb21)1Yey/J mouse model of DS, sometimes referred to as the Dp16 mouse, carries a segmental duplication of mouse chromosome 16 causing triplication of ˜120 protein-coding genes orthologous to those on human chromosome 21, including the Ifnr cluster; and that Dp16 mice display key phenotypes of DS including hyperactive IFN signaling, a dysregulated antiviral response, increased prevalence of heart defects, developmental delays, cognitive impairments and craniofacial anomalies. The TLR3 agonist polyinosinic-polycytidylic acid, poly(I:C), is an innate immune stimulus known to trigger an IFN response. Three groups of Dp16 mice were dosed from day ˜7 through 10 by gavage at 10 mg/Kg, twice/day for the first 5 days and once/day thereafter, with vehicle (2 groups) or compound 2 in vehicle (1 group), and one of the vehicle groups and the compound 2 group were dosed by injection with poly(I:C) on day 7, while the other vehicle group was given a sham injection. Treatment with compound 2 ameliorated the increased expressions of cytokines, IFNα and […], TNF-α, IL-2, -5, -6, -10, and -12P70, and attenuated the inflammatory response, including ameliorating the skin thickening, induced by Poly(I:C) in these Dp16 mice. Transcriptome analysis of liver samples identified gene sets substantially dysregulated in the Dp16 mice and attenuated by treatment with compound 2; including signatures of increased cell proliferation (E2F targets and G2/M checkpoint), increased JAK/STAT and interferon signaling, and decreased fatty acid metabolism. The genistein phosphate derivatives of this invention are therefore expected to be useful for the treatment of subjects with Down syndrome.

[2] = tested on: patients with moderate to severe rheumatoid arthritis; test: Randomized, double-blind, placebo-controlled study in rheumatoid arthritis; assay type: in vivo, human; conditions: oral 500 mg capsule once daily for 24 weeks; expected
Description: Approximately 120 patients, ages 30-65, diagnosed with rheumatoid arthritis according to the 2010 ACR/EULAR classification criteria, are enrolled in a randomized, double-blind, placebo-controlled study to evaluate the efficacy of compound 2 in patients with moderate to severe rheumatoid arthritis. Participants are randomized to receive either oral compound 2 (500 mg capsule) or placebo once daily for a period of 24 weeks. The primary efficacy endpoint is the improvement in the Disease Activity Score-28 (DAS28) with C-reactive protein (CRP) at week 24. A clinically meaningful reduction in DAS28 score is defined as a reduction of ≥1.2 points from baseline. Secondary endpoints include: Improvement in physical function as measured by the Health Assessment Questionnaire Disability Index (HAQ-DI), reduction in morning stiffness and joint pain, and changes in levels of inflammatory cytokines such as TNF-α, IL-6, and IL-1β. […] Additionally, compound 2 is expected to reduce serum levels of pro-inflammatory cytokines and markers of joint damage such as matrix metalloproteinases (MMPs), thus providing evidence of its disease-modifying effects.

[3] = tested on: LMNA^H222P/H222P mouse; test: Dilated cardiomyopathy model, echocardiography; assay type: in vivo; conditions: continuous 4 weeks by osmotic pumps
Description: The LMNA^H222P/H222P mouse is a well-established model for studying dilated cardiomyopathy and heart failure, with cardiac dysfunction typically beginning to manifest at around 16 weeks of age. In this study, 16-week-old LMNA^H222P/H222P mice underwent baseline echocardiography prior to treatment. Compound 2 was then administered continuously for 4 weeks using osmotic pumps, with DMSO as the vehicle control. At the end of the treatment period, echocardiography was performed again to assess the impact of compound 2 on cardiac function compared to the control group. […] In a FLNC knockout model using the Myh6-Cre:FLNC^wt/F mouse, 16-week-old mice underwent baseline echocardiography, were treated with compound 2 at 50 mg/Kg/day or vehicle by gavage for 6 weeks, and underwent echocardiography to assess the change in cardiac function. […] The genistein phosphate derivatives of this invention are therefore expected to be useful for the treatment of subjects with dilated cardiomyopathy.

[4] = tested on: mdx mice; test: mdx mice, blood cytokine analysis; assay type: in vivo, mouse; conditions: 20 mg/Kg/day by gavage, four-month-old mdx mice
Description: Dis., 21, 579-589 (2011), “Duchenne muscular dystrophy (DMD) is the most common lethal X-linked recessive disorder, affecting 1 in 3500 live male births. DMD children show early symptoms of muscle degeneration, frequently develop contractures, and lose the ability to walk by 13 years of age. With disease. progression, most patients succumb to death from respiratory failure and cardiac dysfunction in early adulthood. The primary cause of this disease stems from the lack of the protein dystrophin, which is essential for the structural and functional integrity of muscle membrane. Dystrophin absence results in membrane damage, allowing massive infiltration of immune cells, chronic inflammation, necrosis, and severe muscle degeneration . . . . […] The genistein phosphate derivatives of this invention are therefore expected to be useful for the treatment of subjects with Duchenne muscular dystrophy.

[5] = Thermodynamic solubility in FaSSIF; assay type: physicochemical; conditions: thermodynamic from solid, room temperature, 24 hours shaking
Description: After shaking, the samples were centrifuged at 25° C. for 20 minutes at 4000 rpm. Filtrates were prepared using the Whatman Mini-UniPrep Syringeless Filter Device (PTFE filter media with polypropylene housing, pore size 0.45 μm) from Cytiva, and dilutions were performed as required. Quantification of all samples was carried out using an LC-UV system.

[6] = Stability in simulated gastric fluid (SGF); assay type: in vitro ADME; conditions: SGF pH 1.2, 37° C., 2 μM
Description: The stability of compounds 1 to 4, and the control compound omeprazole, were measured in simulated gastric fluid (SGF: 0.2% w/v sodium chloride, 0.7% v/v hydrochloric acid, and 0.32% w/v pepsin in deionized water, pH 1.2±0.05). Stock solutions of the compounds (10 mM) were diluted to 200 μM in DMSO, then duplicate 2 μL aliquots added to 96-well plates for time points 0, 1, 2, 6, and 24 hours. SGF (198 μL) was added to all wells except those for time 0, to give a starting compound concentration of 2 μM; and the samples were incubated at 37° C. with agitation at 600 rpm for the prescribed times. After incubation, 200 μL of each sample was extracted and mixed with 400 μL cold ACN containing 200 ng/mL tolbutamide and labetalol as internal standards. The samples were centrifuged at […] for 20 minutes at 4° C., and the supernatants (60 μL) each diluted with purified water (180 μL) for LC/MS/MS analysis. The percentage of the test compound remaining at each time point was calculated based on the ratio of the peak area of the analyte to the internal standards.

[7] = increases seen in control group

With `O=c1c(-c2ccc(O)cc2)coc2cc(OCOP(=O)(O)O)cc(O)c12` [Compound 2, ((5-Hydroxy-3-(4-hydroxyphenyl)-4-oxo-4H-chromen-7-yl)oxy)methyl dihydrogen phosphate] the “inflammatory response induced by Poly(I:C)” value ([1]; 10 mg/Kg by gavage) was “attenuated”, the “skin thickening induced by Poly(I:C)” value ([1]; 10 mg/Kg by gavage) was “ameliorating” and the “increased expressions of cytokines, IFNα and […], TNF-α, IL-2, -5, -6, -10, and -12P70” value ([1]; 10 mg/Kg by gavage, twice/day first 5 days then once/day, poly(I:C) injection) was “ameliorated”. The “dysregulated liver gene sets (cell proliferation, JAK/STAT and interferon signaling, fatty acid metabolism)” value ([1]; transcriptome analysis of liver samples) was “attenuated”, the “serum levels of pro-inflammatory cytokines” value [2] was “reduce” and the ejection fraction ([3]; vs DMSO control group) was “reduced the decrease”. For the same molecule, the fractional shortening ([3]; vs DMSO control group) was “reduced the decrease”, the left ventricular diameter [3, 7] was “reduced” and the left ventricular volume [3, 7] was “reduced”. The Leptin in blood [4] was “significantly reduced”, the “blood cytokines BAFF, BTC, CCL7, CCL11, CSF3, CXCL10, IL-1α, IL-1β, IL-5, IL-10, IL-18, IL-19, IL-2RA, IL-7RA, LIF, MIP-10, MIP2, TNF-α, VEGF” value [4] was “appeared to be reduced” and the solubility at 24 h ([5]; read-out: Solubility) was 7.82 mM. For the same molecule, the solubility at 24 h ([5]; read-out: Solubility (μg/mL)) was 2970 µg/mL, the “Percentage remaining at time: 1 hour” value ([6]; 1 hour) was 100% and the “Percentage remaining at time: 2 hours” value ([6]; 2 hours) was 104%. The “Percentage remaining at time: 6 hours” value ([6]; 6 hours) was 116%, the “Percentage remaining at time: 24 hours” value ([6]; 24 hours) was 113% and the “Percentage remaining at time: 0” value ([6]; time 0) was 100%.
